US9255093B2, “Polycyclic HERG activators” (NOVARTIS AG, priority 2014, dated 2016)

Molecular target: hERG (human ether-a-go-go-related gene) potassium channel (Homo sapiens, UniProt Q12809)
Experiment: QPatch automated patch-clamp hERG activator 4-concentration EC50 assay
Conditions: increase of hERG tail current amplitude at 7 second (TL7); 10 uM; hERG stably expressed in CHO cells
Text: A patch-clamp assay on the QPatch© automated patch clamp system was employed to assesses whether compounds functionally enhance the cardiac delayed rectifier hERG (human ether-a-go-go-related gene) potassium channel. The assay measures electric the current passing through hERG channels that are heterologously expressed in a stable Chinese hamster ovary (CHO) cell line. Channels are opened by a hERG-specific voltage protocol and the compound effect is directly characterized by the activation of the hERG current. EC50 values are obtained from fitting 4-concentration dose response curves (1.1, 3.3, 10 & 30 uM) in triplicates at 4 different sections of the voltage protocol (steady state current amplitude at +10 mV, at +30 mV, peak tail current amplitude and tail current amplitude at 7 second).

Sequence of hERG (human ether-a-go-go-related gene) potassium channel (Q12809 whole entry): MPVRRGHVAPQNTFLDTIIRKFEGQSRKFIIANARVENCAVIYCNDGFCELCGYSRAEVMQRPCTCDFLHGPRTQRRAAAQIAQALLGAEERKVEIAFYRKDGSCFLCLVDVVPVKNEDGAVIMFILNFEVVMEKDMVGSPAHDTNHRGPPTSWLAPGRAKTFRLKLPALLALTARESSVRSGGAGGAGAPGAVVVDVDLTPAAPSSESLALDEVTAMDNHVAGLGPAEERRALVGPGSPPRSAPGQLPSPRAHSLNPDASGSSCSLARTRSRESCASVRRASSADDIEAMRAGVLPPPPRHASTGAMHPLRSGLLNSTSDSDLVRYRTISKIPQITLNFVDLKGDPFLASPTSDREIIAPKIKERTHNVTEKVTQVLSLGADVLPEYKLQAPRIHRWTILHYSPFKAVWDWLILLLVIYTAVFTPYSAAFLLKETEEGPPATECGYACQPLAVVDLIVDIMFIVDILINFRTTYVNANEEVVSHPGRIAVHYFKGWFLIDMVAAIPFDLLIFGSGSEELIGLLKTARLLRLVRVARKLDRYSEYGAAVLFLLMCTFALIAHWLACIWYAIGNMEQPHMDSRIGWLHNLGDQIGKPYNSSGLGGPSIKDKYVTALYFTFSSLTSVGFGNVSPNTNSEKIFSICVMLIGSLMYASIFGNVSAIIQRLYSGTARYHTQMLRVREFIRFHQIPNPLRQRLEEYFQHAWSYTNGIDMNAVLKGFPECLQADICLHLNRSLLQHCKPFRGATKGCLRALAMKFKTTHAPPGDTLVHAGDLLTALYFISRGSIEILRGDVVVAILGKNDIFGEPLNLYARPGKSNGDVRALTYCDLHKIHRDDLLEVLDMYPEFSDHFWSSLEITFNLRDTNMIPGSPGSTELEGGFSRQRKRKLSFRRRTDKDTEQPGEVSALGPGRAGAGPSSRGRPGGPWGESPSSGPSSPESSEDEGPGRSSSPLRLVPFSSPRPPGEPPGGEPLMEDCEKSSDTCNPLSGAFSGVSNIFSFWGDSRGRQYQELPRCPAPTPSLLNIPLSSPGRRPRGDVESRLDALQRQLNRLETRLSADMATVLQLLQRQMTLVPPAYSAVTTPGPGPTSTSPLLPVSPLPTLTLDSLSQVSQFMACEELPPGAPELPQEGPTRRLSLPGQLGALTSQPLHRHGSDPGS

Row | Compound | % change@TL7@10 uM [%]
1 | CC(Nc1ccc(SC(F)(F)F)c(Cl)c1)c1ccc2oc(-c3nnn[nH]3)cc2c1 (stereo not drawn) [Example 74] | 124
2 | FC(F)(F)Oc1cc(Cl)cc(NCc2ccc3oc(-c4nnn[nH]4)cc3c2)c1 [Example 75] | 123
3 | CCCc1ccc(NCc2ccc3oc(-c4nnn[nH]4)cc3c2)cc1OC(F)(F)F [Example 76] | 120
4 | CC(Nc1ccc(OC(F)(F)F)c(Cl)c1)c1ccc2oc(-c3nnn[nH]3)cc2c1 (stereo not drawn) [Example 77] | 118
5 | CCc1ccc(NCc2ccc3oc(-c4nnn[nH]4)cc3c2)cc1C(F)(F)F [Example 78] | 108
6 | CCCc1ccc(NCc2ccc3oc(-c4nnn[nH]4)cc3c2)cc1F [Example 79] | 101
7 | CCCc1ccc(NCc2ccc3oc(-c4nnn[nH]4)cc3c2)cc1C [Example 80] | 83
8 | CCCc1ccc(NC(C)c2ccc3oc(-c4nnn[nH]4)cc3c2)cc1C(F)(F)F (stereo not drawn) [Example 81] | 74
9 | CCCc1ccc(NCc2ccc3oc(-c4nnn[nH]4)c(C)c3c2)cc1C(F)(F)F [Example 82] | 39
10 | CC(Nc1ccc2c(c1)OC(F)(F)O2)c1ccc2oc(-c3nnn[nH]3)cc2c1 (stereo not drawn) [Example 83] | 36
11 | CCCc1ccc(NC(C)c2ccc3oc(-c4nnn[nH]4)cc3c2)cc1Cl (stereo not drawn) [Example 84] | 29
12 | O=C(O)c1cc2ccc(CNc3cc(Br)c(Br)c(Br)c3)cc2o1 [Example 85] | 397
13 | O=C(O)c1cc2ccc(CNc3cc(Cl)c(Cl)c(Cl)c3)cc2o1 [Example 86] | 381
14 | O=C(O)c1cc2ccc(CNc3ccc(SC(F)(F)F)c(Cl)c3)cc2o1 [Example 87] | 326
15 | O=C(O)c1cc2ccc(CNc3ccc(OC(F)(F)F)c(Cl)c3)cc2o1 [Example 88] | 274
16 | O=C(O)c1cc2ccc(CNc3ccc4c(c3)OC(F)(F)O4)cc2o1 [Example 89] | 270
17 | O=C(O)c1cc2ccc(CNc3ccc(OC(F)(F)F)c(Br)c3)cc2o1 [Example 90] | 247
18 | O=C(O)c1cc2ccc(CNc3ccc(SC(F)(F)F)c(C(F)(F)F)c3)cc2o1 [Example 91] | 226
19 | O=C(O)c1cc2ccc(CNc3ccc(OC(F)(F)F)c(C(F)(F)F)c3)cc2o1 [Example 92] | 215
20 | CCCc1ccc(NCc2ccc3cc(C(=O)O)oc3c2)cc1Cl [Example 93] | 212
21 | O=C(O)c1cc2ccc(CNc3ccc4c(c3)OC(F)(F)C(F)(F)O4)cc2o1 [Example 94] | 194
22 | CCCc1ccc(NCc2ccc3cc(C(=O)O)oc3c2)cc1C(F)(F)F [Example 95] | 193
23 | CSc1ccc(NCc2ccc3cc(C(=O)O)oc3c2)cc1C(F)(F)F [Example 96] | 185
24 | CSc1cccc(NCc2ccc3cc(C(=O)O)oc3c2)c1 [Example 97] | 159

Row | Compound | % change@TL7@10 uM [%]
25 | O=C(O)c1cc2ccc(CNc3ccc(N4CCOCC4)c(Br)c3)cc2o1 [Example 98] | 158
26 | O=C(O)c1cc2ccc(CNc3ccc(S(F)(F)(F)(F)F)cc3)cc2o1 [Example 99] | 157
27 | CCc1ccc(NCc2ccc3cc(C(=O)O)oc3c2)cc1C(F)(F)F [Example 100] | 156
28 | O=C(O)c1cc2ccc(CNc3ccc(C(F)(F)F)c(C(F)(F)F)c3)cc2o1 [Example 101] | 156
29 | Cc1cc(NCc2ccc3cc(C(=O)O)oc3c2)ccc1OC(F)(F)F [Example 102] | 153
30 | O=C(O)c1cc2ccc(CNc3ccc(C(=O)C(F)(F)F)cc3)cc2o1 [Example 103] | 112
31 | O=C(O)c1cc2ccc(CNc3ccc(OC(F)(F)F)c(OC(F)(F)F)c3)cc2o1 [Example 104] | 111
32 | O=C(O)c1cc2ccc(CNc3ccc4c(c3)OCCO4)cc2o1 [Example 105] | 105
33 | O=C(O)c1cc2ccc(CNc3cc(F)c(F)c(Br)c3)cc2o1 [Example 106] | 90
34 | O=C(O)c1oc2cc(CNc3ccc(OC(F)(F)F)c(Br)c3)ccc2c1C(F)(F)F [Example 107] | 85
35 | O=C(O)c1cc2ccc(CNc3ccc(OCC(F)(F)F)c(Cl)c3)cc2o1 [Example 108] | 82
36 | O=C(O)c1cc2ccc(CNc3cccc(N4CCOCC4)c3)cc2o1 [Example 109] | 81
37 | O=C(O)c1cc2ccc(CNc3cc(Cl)c(F)c(C(F)(F)F)c3)cc2o1 [Example 110] | 76
38 | CCCc1ccc(NCc2ccc3c(C(F)(F)F)c(C(=O)O)oc3c2)cc1C(F)(F)F [Example 111] | 65
39 | O=C(O)c1cc2ccc(CNc3ccc(C(F)(F)F)cn3)cc2o1 [Example 112] | 53
40 | O=C(O)c1cc2ccc(CNc3ccc(SC(F)(F)F)cc3)cc2o1 [Example 113] | 53
41 | Cc1nc2cc(NCc3ccc4cc(C(=O)O)oc4c3)ccc2s1 [Example 114] | 45
42 | COc1ccc(NCc2ccc3cc(C(=O)O)oc3c2)cc1Cl [Example 115] | 41
43 | O=C(O)c1cc2ccc(CNc3cc(C(F)(F)F)cc(C(F)(F)F)c3)cc2o1 [Example 116] | 31
44 | COc1ccc(NCc2ccc3cc(C(=O)O)oc3c2)cc1C(F)(F)F [Example 117] | 28
45 | O=C(O)c1cc2ccc(CNc3ccc(OCC(F)(F)F)c(C(F)(F)F)c3)cc2o1 [Example 118] | 27
46 | O=C(O)c1cc2ccc(CNc3cc(Cl)nc(Cl)c3)cc2o1 [Example 119] | 22
47 | O=C(O)c1cc2cc(CNc3cc(Cl)c(Cl)c(Cl)c3)ccc2o1 [Example 120] | 282
48 | CCCc1ccc(NCc2ccc3oc(C(=O)O)cc3c2)cc1Cl [Example 121] | 210

Row | Compound | % change@TL7@10 uM [%]
49 | CCCc1ccc(NCc2ccc3oc(C(=O)O)cc3c2)cc1C(F)(F)F [Example 122] | 184
50 | O=C(O)c1cc2cc(CNc3ccc(Cl)c(Cl)c3)ccc2o1 [Example 123] | 183
51 | CCc1ccc(NCc2ccc3oc(C(=O)O)cc3c2)cc1C(F)(F)F [Example 124] | 167
52 | CCCc1cc(NCc2ccc3oc(C(=O)O)cc3c2)ccc1C(F)(F)F [Example 125] | 138
53 | CCCc1cc(NCc2ccc3oc(C(=O)O)cc3c2)ccc1Cl [Example 126] | 64
54 | Fc1cc2oc(-c3nnn[nH]3)cc2cc1CNc1ccc(OCC(F)(F)F)c(C(F)(F)F)c1 [Example 127] | 268
55 | CCCc1ccc(NCc2cc3cc(-c4nnn[nH]4)oc3cc2F)cc1C(F)(F)F [Example 128] | 142
56 | Fc1cc2oc(-c3nnn[nH]3)cc2cc1CNc1ccc(Cl)c(Cl)c1 [Example 129] | 154
57 | Fc1cc2oc(-c3nnn[nH]3)cc2cc1CNc1ccc(OC(F)(F)F)c(C(F)(F)F)c1 [Example 130] | 220
58 | Fc1cc2oc(-c3nnn[nH]3)cc2cc1CNc1cc(C(F)(F)F)c(Br)c(C(F)(F)F)c1 [Example 133] | 326
59 | FC(F)Oc1ccc(NCc2cc3cc(-c4nnn[nH]4)oc3cc2Cl)cc1C(F)(F)F [Example 134] | 217
60 | FC(F)(F)COc1ccc(NCc2cc3cc(-c4nnn[nH]4)oc3cc2Cl)cc1C(F)(F)F [Example 135] | 181
61 | FC(F)(F)c1cc(NCc2cc3cc(-c4nnn[nH]4)oc3cc2Cl)cc(C(F)(F)F)c1Br [Example 137] | 166
62 | FC(F)(F)c1ccc(NCc2cc3cc(-c4nnn[nH]4)oc3cc2Cl)cc1Cl [Example 138] | 196
63 | Clc1ccc(NCc2cc3cc(-c4nnn[nH]4)oc3cc2Cl)cc1Cl [Example 139] | 112
64 | Fc1c(CNc2ccc(OC(F)(F)F)c(Br)c2)ccc2oc(-c3nnn[nH]3)cc12 [Example 140] | 290
65 | Fc1c(CNc2ccc(OCC(F)(F)F)c(C(F)(F)F)c2)ccc2oc(-c3nnn[nH]3)cc12 [Example 142] | 188
66 | Fc1c(CNc2cc(C(F)(F)F)c(Br)c(C(F)(F)F)c2)ccc2oc(-c3nnn[nH]3)cc12 [Example 143] | 193
67 | Fc1cc(CNc2ccc(OCC(F)(F)F)c(C(F)(F)F)c2)cc2cc(-c3nnn[nH]3)oc12 [Example 147] | 151
68 | FC(F)(F)Oc1ccc(NCc2ccc3oc(-c4nn[nH]n4)cc3c2)cc1Br [Example 149] | 335
69 | Fc1cc2cc(-c3nnn[nH]3)oc2cc1CNc1ccc(Cl)c(C(F)(F)F)c1 [Example 150] | 218
70 | Fc1c(CNc2cc(C(F)(F)F)c(Br)c(C(F)(F)F)c2)ccc2cc(-c3nnn[nH]3)oc12 [Example 151] | 308
71 | COc1cc2cc(-c3nnn[nH]3)oc2cc1CNc1ccc(OCC(F)(F)F)c(C(F)(F)F)c1 [Example 153] | 381
72 | Fc1c(CNc2ccc(OCC(F)(F)F)c(C(F)(F)F)c2)ccc2cc(-c3nnn[nH]3)oc12 [Example 154] | 325
